Test results as given in ChEMBL document CHEMBL1201862, “PubChem BioAssay data set” (2004).
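These data come from cells grown in 96-well plates and exposed to compound for 48 hours at five concentrations. GI50: concentration for 50% inhibition of growth.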 Active and inactive are the calls of the source. Rule as the data show it: active = GI50 up to about 1.1 µM and inactive = higher.

Experiments:
Assay in all cases: inhibition of tumour cell growth, NCI panel, 48 h
[1] = tested on: HL-60
[2] = tested on: HOP-62
[3] = tested on: HCC 2998
[4] = tested on: M14
[5] = tested on: TK-10
[6] = tested on: DU-145
[7] = tested on: RXF 393
[8] = tested on: SF-268
[9] = tested on: EKVX
[10] = tested on: HT-29
[11] = tested on: MOLT-4
[12] = tested on: SK-MEL-2
[13] = tested on: SF-295
[14] = tested on: SN12C
[15] = tested on: K562
[16] = tested on: OVCAR-8
[17] = tested on: U-251
[18] = tested on: PC-3
[19] = tested on: NCI-H460
[20] = tested on: RPMI-8226

`CN(C)CCNc1ccc2c(=O)n(CCN(C)C)c(=O)n3c4ccc(O)cc4c(=O)c1c23` was tested, and the GI50 [1] was < 0.01 µM (active), the GI50 [2] was < 0.01 µM (active) and the GI50 [3] was < 0.01 µM (active). The GI50 [4] was < 0.034 µM (active), the GI50 [5] was 0.197 µM (active) and the GI50 [6] was < 0.01 µM (active). The GI50 [7] was < 0.0127 µM (active), the GI50 [8] was < 0.0134 µM (active) and the GI50 [9] was 0.183 µM (active). The GI50 [10] was < 0.01 µM (active), the GI50 [11] was < 0.01 µM (active) and the GI50 [12] was 0.226 µM (active). The GI50 [13] was < 0.01 µM (active), the GI50 [14] was 0.0103 µM (active) and the GI50 [15] was < 0.01 µM (active). The GI50 [16] was < 0.01 µM (active), the GI50 [17] was < 0.0109 µM (active) and the GI50 [18] was < 0.0491 µM (active). The GI50 [19] was < 0.01 µM (active) and the GI50 [20] was < 0.0104 µM (active).
With `OCCN=C1c2ccccc2C2C(c3ccccc31)C1c3ccccc3C(=NCCO)c3ccccc3C21` (stereo not given) the GI50 [1] was 13.9 µM (inactive), the GI50 [2] was 18.1 µM (inactive) and the GI50 [3] was 22.6 µM (inactive). For the same compound, the GI50 [4] was 20.1 µM (inactive), the GI50 [5] was 26.4 µM (inactive) and the GI50 [6] was 21.7 µM (inactive). For the same compound, the GI50 [7] was 22.8 µM (inactive), the GI50 [8] was 23.2 µM (inactive) and the GI50 [9] was 35.9 µM (inactive). The GI50 [10] was 15.4 µM (inactive), the GI50 [11] was 8.91 µM (inactive) and the GI50 [12] was 16.4 µM (inactive). For the same compound, the GI50 [13] was 12.9 µM (inactive), the GI50 [14] was 18.6 µM (inactive) and the GI50 [15] was 12.6 µM (inactive). For the same compound, the GI50 [16] was 26.9 µM (inactive), the GI50 [17] was 20.2 µM (inactive) and the GI50 [18] was 17.2 µM (inactive). The GI50 [19] was 26.9 µM (inactive) and the GI50 [20] was 13.6 µM (inactive).
With `CCN(CC)C(=S)/N=C(\SC(=S)N(CC)CC)c1ccccc1` the GI50 [1] was 1.27 µM (inactive), the GI50 [2] was 29.9 µM (inactive) and the GI50 [3] was 57.1 µM (inactive). The GI50 [4] was 37.5 µM (inactive), the GI50 [5] was > 89.5 µM (inactive) and the GI50 [6] was 27.9 µM (inactive). The GI50 [7] was > 49.3 µM (inactive), the GI50 [8] was 41.6 µM (inactive) and the GI50 [9] was 38.5 µM (inactive). The GI50 [10] was 0.392 µM (active), the GI50 [11] was 18.6 µM (inactive) and the GI50 [12] was 30.7 µM (inactive). The GI50 [13] was 42.6 µM (inactive), the GI50 [14] was 48.6 µM (inactive) and the GI50 [15] was 1.29 µM (inactive). The GI50 [16] was 56 µM (inactive), the GI50 [17] was 58.5 µM (inactive) and the GI50 [18] was 26.9 µM (inactive). The GI50 [19] was 6.1 µM (inactive) and the GI50 [20] was 2.48 µM (inactive).
For `COc1cccc2c1C(=O)c1c(O)c3c(c(O)c1C2=O)C[C@@](O)(C(C)=O)CC3OC1CC(OC2CC(N)C(O)C(C)O2)C(O)C(C)O1` (stereo not given in full), the GI50 [1] was 10.6 µM (inactive), the GI50 [2] was 36.8 µM (inactive) and the GI50 [3] was 54.6 µM (inactive). The GI50 [4] was 61.7 µM (inactive), the GI50 [5] was > 100 µM (inactive) and the GI50 [6] was 49.1 µM (inactive). The GI50 [7] was 83 µM (inactive), the GI50 [8] was 31.3 µM (inactive) and the GI50 [9] was > 100 µM (inactive). The GI50 [10] was 39.5 µM (inactive), the GI50 [11] was 2.58 µM (inactive) and the GI50 [12] was 67.6 µM (inactive). The GI50 [13] was 49 µM (inactive), the GI50 [14] was 36.9 µM (inactive) and the GI50 [15] was 19.6 µM (inactive). For the same compound, the GI50 [16] was 57.9 µM (inactive), the GI50 [17] was 23.9 µM (inactive) and the GI50 [18] was 48.6 µM (inactive). For the same compound, the GI50 [19] was 14.6 µM (inactive) and the GI50 [20] was 18.2 µM (inactive).
In the case of `O=Cc1cc2c(o1)C(=O)c1ccccc1C2=O`, the GI50 [1] is reported as 0.286 µM (active), the GI50 [2] is reported as 0.834 µM (active) and the GI50 [3] is reported as 1.88 µM (inactive). The GI50 [4] was 0.192 µM (active), the GI50 [5] was 2.7 µM (inactive) and the GI50 [6] was 0.212 µM (active). For the same compound, the GI50 [7] was 1.35 µM (inactive), the GI50 [8] was 1.55 µM (inactive) and the GI50 [9] was 2.58 µM (inactive). The GI50 [10] was 0.581 µM (active), the GI50 [11] was 2.06 µM (inactive) and the GI50 [12] was 0.601 µM (active). For the same compound, the GI50 [13] was 0.367 µM (active), the GI50 [14] was 0.279 µM (active) and the GI50 [15] was 1.46 µM (inactive). The GI50 [16] was 1.26 µM (inactive), the GI50 [17] was 0.851 µM (active) and the GI50 [18] was 2.53 µM (inactive). For the same compound, the GI50 [19] was 0.794 µM (active) and the GI50 [20] was 1.82 µM (inactive).
